# What was measured:
# [1] = biological target: T1, Corticotropin-releasing factor receptor 1 (Homo sapiens) (UniProt P34998); assay: Displacement of [125I]-Tyr0 sauvagine from human CRF1 receptor expressed in HEK293 cells membrane homogenates at 1000 nM for 120 mins by scintillation counting in the presence of antalarmin; type: cell membranes
# T1 sequence (whole entry): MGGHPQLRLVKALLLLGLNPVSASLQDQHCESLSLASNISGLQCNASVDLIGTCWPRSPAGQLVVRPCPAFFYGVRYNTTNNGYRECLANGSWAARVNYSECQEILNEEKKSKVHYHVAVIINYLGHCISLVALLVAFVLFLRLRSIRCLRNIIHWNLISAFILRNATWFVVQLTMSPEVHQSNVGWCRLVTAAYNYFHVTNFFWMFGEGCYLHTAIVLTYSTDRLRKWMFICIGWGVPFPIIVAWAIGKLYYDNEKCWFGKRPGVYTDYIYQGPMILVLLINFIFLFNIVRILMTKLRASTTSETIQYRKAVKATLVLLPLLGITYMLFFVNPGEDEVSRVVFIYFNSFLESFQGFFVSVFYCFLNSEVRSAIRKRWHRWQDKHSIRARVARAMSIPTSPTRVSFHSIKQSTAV
# Human betaherpesvirus 5 = assay: Antiviral activity against Human cytomegalovirus Towne infected in HFF cells after 2 hrs by plaque reduction assay; type: functional, cell-based; conditions: Human betaherpesvirus 5, Towne
# [2] = Cytotoxicity against human KB cells assessed as cell growth inhibition by crystal violet staining based spectrophotometry; conditions: read-out: TC50 (the source's name)
# [3] = Cytotoxicity against human MRC5 cells assessed as cell growth inhibition by aqueous non-Radioactivity Cell proliferation Assay; type: cell-based; conditions: read-out: TC50 (the source's name)
# [4] = Cytotoxicity against monkey Vero cells assessed as cell growth inhibition by aqueous non-Radioactivity Cell proliferation Assay; type: cell-based; conditions: chlorocebus sabaeus, read-out: TC50 (the source's name)
# Semliki Forest virus = assay: Antiviral activity against Semliki forest virus infected in mouse; type: functional
SMILES,inhibition [1] [%],IC50 (Human betaherpesvirus 5) [µM],CC50 [2] [µM],CC50 [3] [µM],CC50 [4] [µM],Activity (Semliki Forest virus) [%]
CCCN(CC1CC1)c1nc(C)nc2c1SC(=C(C#N)C#N)N2c1ccc(C(C)C)cc1Br,25,,,,,
CC(C)=CCn1c(=O)sc2c(=O)[nH]c(N)nc21,,6.8,75,75,75,
CCOC(=O)/C(C#N)=C1/Sc2c(N(CCOC)CCOC)nc(C)nc2N1c1ccc(C(C)C)cc1Br,25,,,,,
Nc1nc(=O)c2sc(=O)n([C@@H]3O[C@H](CO)[C@@H](O)[C@H]3O)c2[nH]1 [ISATORIBINE],,,,,,92
CC/C=C/Cn1c(=O)sc2c(=O)[nH]c(N)nc21,,0.5,75,75,75,

# From ChEMBL document CHEMBL3774349, “Thiazolo[4,5-d]pyrimidines as a privileged scaffold in drug discovery” (Eur J Med Chem, 2016)
